Consider 32 compounds from article PMC3963473, “Structure–Activity Relationship Studies of Pyrrolone Antimalarial Agents” (Chemmedchem, 2013).

≈ marks a conversion by molar mass, not a printed value. Read-outs that look alike come from different tables or passages of the source. Bounds are passed on as bounds.

One data set deals with L6 cells. The data set is described as follows: In vitro cytotoxicity assay in L6 cells (Alamar Blue). Format: cell-based. To be noted: Rattus norvegicus. The method, then: (§1) V. Design and Results of the in vitro & in vivo Studies.
A. Drug inhibition of in vitro cultured P. falciparum parasite:2 All in vitro assays were carried out twice independently. In vitro activity against the erythrocytic stages of P. […]
B. In vitro cytotoxicity assay:2 Assays were performed in 96-well microtiter plates, each […]
mM) and 10% fetal bovine serum, and 4 x 10^4 L-6 cells (a primary cell line derived from rat skeletal myoblasts). Serial drug dilutions of seven 3-fold dilution steps covering a range […]
After 72 h of incubation the plates were inspected […]
of Alamar Blue was then added to each well and the plates incubated for another 2 h.
Then the plates were read with a Spectramax Gemini XS microplate fluorometer (Molecular Devices Cooperation, Sunnyvale, CA, USA) using an excitation wave length of […]
Data were analysed using the microplate reader software Softmax Pro (Molecular Devices Cooperation, Sunnyvale, CA, USA).
On the technique in general: The colour change of resazurin is a common sign of viable cells or microbes.

The subject of another data set is Plasmodium falciparum K1. In words: microbe, parasite or virus in culture. The class given is cell-based. To be noted: for EC50: Plasmodium falciparum, K1, read-out: EC50 P. falc.; for drop / loss in activity (fold) / decrease in EC50 value relative to the unsubstituted analogue 56: P. falciparum K1; for drop / loss in activity (fold): C-ring variants, comparator not stated explicitly; for decrease in EC50 value relative to the unsubstituted analogue 56: relative to 56. The method, then:
as §1
A. Drug inhibition of in vitro cultured P. falciparum parasite:2 All in vitro assays were carried out twice independently. In vitro activity against the erythrocytic stages of P. falciparum was determined by using a 3H-hypoxanthine incorporation assay,5-6 using the […]
were dissolved in DMSO at 10 mg/mL and added to parasite cultures incubated in RPMI […]
haematocrit (0.3% parasitaemia). Serial doubling dilutions of each drug were prepared in […]
After 48 h, 50 µL of 3H-hypoxanthine (= 0.5 µCi) was added to each well of the plate. The plates were incubated for an additional 24 h under the same conditions. The plates were then harvested with a Betaplate cell harvester (Wallac, Zurich, Switzerland), and the red blood cells were transferred onto a glass fiber filter and then washed with distilled water. The dried filters were inserted into a plastic foil with 10 mL of scintillation fluid and were counted in a Betaplate™ liquid scintillation counter (Wallac, Zurich, […]

Data set [1] is described as follows: Aqueous solubility estimated by nephelometry. The class given is physicochemical. Particulars: kinetic from dmso stock, nephelometry, 1% DMSO. The protocol: III. Physicochemical Evaluation […]
Solubility Estimation: Aqueous solubility was estimated by nephelometry.
Compound in DMSO was spiked into either water, pH 6.5 phosphate buffer or 0.01N HCl
(approx. pH 2.0) with the final DMSO concentration being 1%. Samples were then
analyzed by Nephelometry to determine the solubility range as described previously.1

The mark [2] stands for this setting: Table 1, A-ring variants, mammalian L6 cells, mean of two independent assays, read-out: EC50 L6 cells.
Where [3] appears, read: Table 1, water, read-out: Solubility water.
Setting [4] is: aqueous buffer, pH 6.5 phosphate buffer, read-out: Solubility pH 6.5.
Setting [5] is: simulated gastric fluid, pH 2.0 (0.01N HCl), read-out: Solubility pH 2.0.
Where [6] appears, read: Table 2, C-ring variants, L6 cells, mean of two independent assays, read-out: EC50 L6 cells.

For orientation: EC50 means the concentration that produces a half-maximal response. Broadly, the melting point is the temperature, or range, at which the solid turns liquid. With `CCOC(=O)C1=C(C)N/C(=C/c2cc(C)n(C3CCNCC3)c2C)C1=O` [Compound 18], the melting point was above 250 °C. In addition, the EC50 in the data set on L6 cells (setting [2]) was above 250 µM. In addition, in the data set on Plasmodium falciparum K1, the EC50 amounted to 12 µM.
The compound `CCOC(=O)C1=C(C)N/C(=C/c2cc(C)n(C3CCN(C)CC3)c2C)C1=O` [Compound 19] returned a melting point of 130 to 135 °C. Also, the EC50 in the data set on L6 cells (setting [2]) was 7.8 µM. In addition, the EC50 in the data set with Plasmodium falciparum K1 was determined as 1.4 µM.
For `CCOC(=O)C1=C(C)N/C(=C/c2cc(C)n(C3CCN(CCC(C)C)CC3)c2C)C1=O` [Compound 21], in that order: 158 to 162 °C, 22 µM and 0.19 µM.
For the compound `CCCN1CCC(n2c(C)cc(/C=C3/NC(C)=C(C(=O)OCC)C3=O)c2C)CC1` [Compound 22], the melting point lay within 145 to 148 °C. Further, the EC50 with L6 cells (setting [2]) amounted to 6.6 µM. Also, in the data set with Plasmodium falciparum K1, the EC50 came to 1.1 µM.
The compound `CCOC(=O)C1=C(C)N/C(=C/c2cc(C)n(C3CCN(CC(C)(C)C)CC3)c2C)C1=O` [Compound 23] gave a melting point of 139 to 142 °C. In addition, the EC50 in the data set with L6 cells (setting [2]) came out at 88 µM. In addition, the EC50 with Plasmodium falciparum K1 came to 0.058 µM.
The term solubility denotes the dissolved amount per volume that the medium holds. Turning to `CCOC(=O)C1=C(C)N/C(=C/c2cc(C)n(C3CCN(Cc4ccc(F)cc4)CC3)c2C)C1=O` [Compound 26], the figures for the EC50 in the data set on L6 cells (setting [2]) and with Plasmodium falciparum K1 were 51 µM and 0.024 µM, respectively. In addition, the solubility in data set [1] (setting [3]) was above 125 µM.
For `CCOC(=O)C1=C(C)N/C(=C/c2cc(C)n(C3CCN(Cc4ccc(F)cc4F)CC3)c2C)C1=O` [Compound 27], in that order: 23 µM, 0.023 µM and above 125 µM.
Regarding `CCOC(=O)C1=C(C)N/C(=C/c2cc(C)n(C3CCN(Cc4ccc(C(F)(F)F)cc4)CC3)c2C)C1=O` [Compound 28], the EC50 with L6 cells (setting [2]) was determined as 5 µM; in the data set on Plasmodium falciparum K1, 0.002 µM. In addition, the values for the solubility in data set [1] (setting [4]), in data set [1] (setting [3]) and in data set [1] (setting [5]) were 6 to 12 µM (≈ 3.09 to 6.19 µg/mL), above 125 µM and 48 to 97 µM (≈ 24.7 to 50 µg/mL), respectively.
`CCOC(=O)C1=C(C)N/C(=C/c2cc(C)n(C3CCN(Cc4ccccc4C(F)(F)F)CC3)c2C)C1=O` [Compound 29]: the figures for the EC50 in the data set with L6 cells (setting [2]) and with Plasmodium falciparum K1 were 1.7 µM and 0.0005 µM, respectively. In addition, the solubility in data set [1] (setting [3]) is above 125 µM. Moreover, the “EC50 (P. falciparum K1)” value with Plasmodium falciparum K1 (values in nM) is given as “sub-nanomolar”.
With `CCOC(=O)C1=C(C)N/C(=C/c2cc(C)n(C3CCN(CCc4ccccc4)CC3)c2C)C1=O` [Compound 31], the EC50 with L6 cells (setting [2]) stood at 107 µM; in the data set with Plasmodium falciparum K1, 0.32 µM.
As for `CCOC(=O)C1=C(C)N/C(=C/c2cc(C)n(C3CCN(CCc4ccc(OC)cc4)CC3)c2C)C1=O` [Compound 32], the EC50 with L6 cells (setting [2]) was 72 µM; in the data set with Plasmodium falciparum K1, 0.083 µM. Besides, the figures for the solubility in data set [1] (setting [4]) and in data set [1] (setting [5]) were 25 to 51 µM (≈ 12.3 to 25.1 µg/mL) and 100 to 200 µM (≈ 49.2 to 98.3 µg/mL), respectively.
With `CCOC(=O)C1=C(C)N/C(=C/c2cc(C)n(C3CCN(CCc4ccc(C(F)(F)F)cc4)CC3)c2C)C1=O` [Compound 33], the values for the EC50 in the data set with L6 cells (setting [2]) and in the data set with Plasmodium falciparum K1 were 19 µM and 0.13 µM, respectively.
Consider `CCOC(=O)C1=C(C)N/C(=C/c2cc(C)n(C3CCN(CCc4ccc(F)cc4)CC3)c2C)C1=O` [Compound 34], for which the half-maximal effective concentration (EC50) in the data set with L6 cells (setting [2]) is 22 µM; in the data set on Plasmodium falciparum K1 it was 0.096 µM. Besides, the solubility in data set [1] (setting [4]) was 13 to 26 µM (≈ 6.23 to 12.5 µg/mL); in data set [1] (setting [5]) it was 52 to 100 µM (≈ 24.9 to 48 µg/mL).
For `CCOC(=O)C1=C(C)N/C(=C/c2cc(C)n(C3CCN(C(C)c4ccc(C(F)(F)F)cc4)CC3)c2C)C1=O` (stereo not shown) [Compound 35], the results for the concentration for a half-maximal effect (EC50) in the data set with L6 cells (setting [2]) and with Plasmodium falciparum K1 were 4.26 µM and 0.007 µM, respectively.
Take `CCOC(=O)C1=C(C)N/C(=C/c2cc(C)n(C3CCN(CCN4CCOCC4)CC3)c2C)C1=O` [Compound 37]: the melting point is 115 to 118 °C. For the same compound, in the data set with L6 cells (setting [2]), the EC50 is 89 µM. Also, the EC50 in the data set with Plasmodium falciparum K1 was 5.3 µM.
The like results for `CCOC(=O)C1=C(C)N/C(=C/c2cc(C)n(C3CCN(CCN4CCCCC4)CC3)c2C)C1=O` [Compound 38] were, in that order, 122 to 125 °C, 97 µM and 2.4 µM.
The like results for `CCOC(=O)C1=C(C)N/C(=C/c2cc(C)n(C3CCN(CC4CC4)CC3)c2C)C1=O` [Compound 39] were, in that order, 142 to 146 °C, 14 µM and 3.5 µM.
`CCOC(=O)C1=C(C)N/C(=C/c2cc(C)n(C3CCN(CC4CCOCC4)CC3)c2C)C1=O` [Compound 41] displayed a melting point of 180 to 183 °C. The EC50 with L6 cells (setting [2]) came out at 43 µM. For the same compound, the concentration giving a half-maximal response (EC50) with Plasmodium falciparum K1 stood at 0.11 µM.
For `CCOC(=O)C1=C(C)N/C(=C/c2cc(C)n(C3CCN(CC4CCN(C)CC4)CC3)c2C)C1=O` [Compound 42], in that order: 230 to 235 °C, 81 µM and 1.4 µM.
The like results for `CCOC(=O)C1=C(C)N/C(=C/c2cc(C)n(C3CCN(Cc4ccn(C)n4)CC3)c2C)C1=O` [Compound 45] were, in that order, 180 to 184 °C, 36 µM and 0.15 µM.
The like results for `CCOC(=O)C1=C(C)N/C(=C/c2cc(C)n(C3CCN(Cc4ncc[nH]4)CC3)c2C)C1=O` [Compound 46] were, in that order, 185 to 190 °C, 28 µM and 1.2 µM.
With `CCOC(=O)C1=C(C)N/C(=C/c2cc(C)n(C3CCN(Cc4cc(C)on4)CC3)c2C)C1=O` [Compound 47], the melting point fell in the range of 185 to 188 °C. In addition, the EC50 in the data set on L6 cells (setting [2]) is 42 µM. The EC50 with Plasmodium falciparum K1 was 0.1 µM.
Regarding `CCOC(=O)C1=C(C)N/C(=C/c2cc(C)n(C3CCN(Cc4nccn4C)CC3)c2C)C1=O` [Compound 49], the melting point fell in the range of 186 to 189 °C. In addition, in the data set on L6 cells (setting [2]), the EC50 was 16 µM. For the same compound, the EC50 with Plasmodium falciparum K1 worked out at 1 µM.
For `CCOC(=O)C1=C(C)N/C(=C/c2cc(C)n(C3CCN(Cc4cccn4C)CC3)c2C)C1=O` [Compound 50], in that order: 190 to 194 °C, 3 µM and 0.012 µM.
The like results for `CCOC(=O)C1=C(C)N/C(=C/c2cc(C)n(C3CCN(Cc4ccc(N5CCOCC5)nc4)CC3)c2C)C1=O` [Compound 52] were, in that order, above 280 °C, 50 µM and 1.5 µM.
The like results for `CCOC(=O)C1=C(C)N/C(=C/c2cc(C)n(C3CCN(Cc4cnc(N5CCOCC5)nc4)CC3)c2C)C1=O` [Compound 53] were, in that order, 194 to 199 °C, 28 µM and 0.075 µM.
`CCOC(=O)C1=C(C)N/C(=C/c2cc(C)n(C3CCN(Cc4ccc(N5CCOCC5)cc4)CC3)c2C)C1=O` [Compound 54] gave a melting point above 280 °C. For the same compound, the EC50 with L6 cells (setting [2]) amounted to 53 µM. Besides, the EC50 with Plasmodium falciparum K1 is 2.6 µM.
In turn, `CCCn1ccc2c(c1=O)C(=O)/C(=C\c1cc(C)n(-c3ccccc3C(F)(F)F)c1C)N2` [Compound 59] displayed a melting point of 180 to 185 °C. Besides, the EC50 with L6 cells (setting [6]) came to 34 µM. In the data set with Plasmodium falciparum K1, the “drop / loss in activity (fold)” value was “tenfold” and the EC50 turned out to be 0.15 µM.
`Cc1cc(/C=C2/Nc3ccn(CCN4CCOCC4)c(=O)c3C2=O)c(C)n1-c1ccccc1C(F)(F)F` [Compound 60]: the melting point lay in the range of 180 to 185 °C. Moreover, the EC50 in the data set on L6 cells (setting [6]) is 65 µM. Besides, in the data set on Plasmodium falciparum K1, the “decrease in EC50 value relative to the unsubstituted analogue 56” value is “fivefold” and the EC50 was 0.23 µM.
The like results for `Cc1cc(/C=C2/Nc3ccn(CCN(C)C)c(=O)c3C2=O)c(C)n1-c1ccccc1C(F)(F)F` [Compound 61] were, in that order, 125 to 128 °C, 35 µM, “fivefold” and 0.25 µM.
`Cc1cc(/C=C2/Nc3ccn(Cc4ccccc4)c(=O)c3C2=O)c(C)n1-c1ccccc1C(F)(F)F` [Compound 62, (E)-5-Benzyl-2-((2,5-dimethyl-1-(2-(trifluoromethyl)phenyl)-1H-pyrrol-3-yl)methylene)-1H-pyrrolo[3,2-c]pyridine-3,4(2H, 5H)dione] gave a melting point of 195 to 200 °C. Also, the EC50 with L6 cells (setting [6]) turned out to be 43 µM. In the data set on Plasmodium falciparum K1, the “drop / loss in activity (fold)” value is on record as “fivefold” and the EC50 was determined as 0.23 µM.
In the case of `COc1cc([C@@H]2c3cc4c(cc3[C@H](O)[C@H]3COC(=O)[C@H]23)OCO4)cc(OC)c1OC` [podophyllotoxin, reference compound], the EC50 in the data set on L6 cells (L6, read-out: EC50 L6 cells) lay within 0.009 to 0.022 µM.
